Assay results as given in patent US11447525B2 (NIIGATA UNIVERSITY, priority 2018, dated 2022).
Entries after “also recorded” stand apart in the source; their conditions may differ. One block for each molecule: values may come before it. Non-standard residues stand in square brackets, D forms with d. Residues, ends and D or L forms follow the SMILES beside them. No end group written: not given here. *: point of attachment. 5FAM = O=C1OC2(c3ccc(O)cc3Oc3cc(O)ccc32)c2ccc(C(=O)*)cc21; NMeR = CN[C@@H](CCCNC(=N)N)C(=O)O

Experiments:
[1] = tested on: BxPC3 cells, PK-8 cells, AsPC1 cells and MIA-Paca2 cells (PDAC); assay: Accumulation of PCPP11 and partially deleted peptides in cells (Reference Example 3); format: cell-based, human; details: for order of the strength of fluorescence in the pancreatic cancer cells: same method as Test Example 2; for fluorescence detected (absorbed fluorescence): same method as Test Example 2 (2 μM, 37° C., 2 hours)
Protocol: Test were conducted confirming the accumulation of PCPP11 and partially deleted peptides thereof in BxPC3 cells, PK-8 cells, AsPC1 cells and MIA-Paca2 cells (all cell lines derived from human invasive pancreatic ductal adenocarcinoma (PDAC)) and in H2110 cells (lung adenocarcinoma cells). The peptides shown below in Table 10 were used.
Using the same method as Test Example 2, each peptide was added to each of the cells and then observed under a microscope. In FIG. 16, “full length” indicates the cells to which FAM-PCPP11 was added, “trunc-ver1” indicates cells to which a trunc-ver1-PCPP11 was added, “trunc-ver2” indicates cells to which a trunc-ver2-PCPP11 was added, and “trunc-ver3” indicates cells to which a trunc-ver3-PCPP11 was added.

[2] = human blood plasma having a concentration of 50% by mass; details: up to 120 minutes
[3] = Degradation test by human blood plasma, MALDI-TOFMS analysis; format: in vitro ADME; details: 50% by mass human blood plasma; 120 min; read-out: degradation resistance (proportion of the peptide retained without degradation)
Protocol: Specifically, a peptide composed of the amino acid sequence represented by SEQ ID NO: 1 (hereafter sometimes referred to as “PCPP11”) was added to human blood plasma having a concentration of 50% by mass, the mixture was sampled immediately after starting the degradation test (after 0 minutes), and then after 5 minutes, after 10 minutes, after 20 minutes, after 30 minutes, after 60 minutes and after 120 minutes, and the samples were analyzed by MALDI-TOFMS (Matrix Assisted Laser Desorption/Ionization-Time Of Flight Mass Spectrometry). In Table 2, “UK” is an abbreviation for “unknown”. Further, the No. shown for each peptide in Table 2 corresponds with the numerical value recorded on the peaks of the graphs shown in FIG. 1.
Each of the peptides described above was added to human blood plasma having a concentration of 50% by mass, the resulting mixture was sampled immediately after starting the degradation test (after 0 minutes), and then after 5 minutes, after 10 minutes, after 20 minutes, after 30 minutes, after 60 minutes and after 120 minutes, and the samples were analyzed by MALDI-TOFMS. The results are shown in FIGS. 2 to 6 and Tables 4 to 6 shown below. Furthermore, the data for the degradation test by human blood plasma using PCPP11 from Reference Example 1 and the degradation tests by human blood plasma using each of the above peptides are collated in FIG. 7 and Table 7. The SEQ ID NO listed for the FAM-labeled peptide represents the SEQ ID NO of the peptide portion. Further, the No. shown for each peptide in Tables 4 to 6 corresponds with the numerical value recorded on the peaks of the graphs shown in FIGS. 2 to 6. In each table, in those cases where the numerical values are shown separated into an upper row and a lower row, the upper row value indicates the proportion (%) of peak area for two or more peptides relative to the total peak area in the MALDI-TOFMS analysis. On the other hand, the lower row value indicates the proportion (%) of each peptide when the peak area for the two or more peptides is deemed to be 100%. Moreover, for example, for the peptide No. 9 shown in Table 4, the left-side “70.0%” indicates the proportion (%) of the peptide No. 9 when the total peak area for the peptides No. 9 to 11 is deemed to be 100%, whereas the right-side “65%” indicates the proportion (%) of the peptide No. 9 relative to the total peak area in the MALDI-TOFMS analysis. This system is also used in the following tables.

Molecule: C[C@@H](O)[C@H](NC(=O)[C@@H](NC(=O)[C@@H]1CCCN1C(=O)[C@H](CCCNC(=N)N)NC(=O)c1ccc2c(c1)C(=O)OC21c2ccc(O)cc2Oc2cc(O)ccc21)[C@@H](C)O)C(=O)N[C@@H](Cc1c[nH]c2ccccc12)C(=O)N[C@@H](Cc1c[nH]cn1)C(=O)N[C@@H](CCCCN)C(=O)N1CCC[C@H]1C(=O)O [FAM-trunc-ver1-PCPP11] (5FAM-RPTTWHKP-OH; C-terminus assumed)
order of the strength of fluorescence in the pancreatic cancer cells [1]: full-length≥trunc-ver3>trunc-ver1>>trunc-ver2

Molecule: C[C@@H](O)[C@H](NC(=O)c1ccc2c(c1)C(=O)OC21c2ccc(O)cc2Oc2cc(O)ccc21)C(=O)N[C@H](C(=O)N[C@@H](Cc1c[nH]c2ccccc12)C(=O)N[C@@H](Cc1c[nH]cn1)C(=O)N[C@@H](CCCCN)C(=O)N1CCC[C@H]1C(=O)O)[C@@H](C)O [FAM-trunc-ver2-PCPP11, [FAM]-TTWHKP] (5FAM-TTWHKP-OH; C-terminus assumed)
order of the strength of fluorescence in the pancreatic cancer cells [1]: full-length≥trunc-ver3>trunc-ver1>>trunc-ver2
fluorescence detected (absorbed fluorescence) [1]: marked reduction in absorbed fluorescence

Molecule: R-mR-PTTWHKP-G-pkhwttprr (H-R[NMeR]PTTWHKPG[dP][dK][dH][dW][dT][dT][dP][dR][dR]-OH; N-terminus and C-terminus assumed; SMILES C[C@H](O)[C@@H](NC(=O)[C@@H](Cc1c[nH]c2ccccc12)NC(=O)[C@@H](Cc1c[nH]cn1)NC(=O)[C@@H](CCCCN)NC(=O)[C@H]1CCCN1C(=O)CNC(=O)[C@@H]1CCCN1C(=O)[C@H](CCCCN)NC(=O)[C@H](Cc1c[nH]cn1)NC(=O)[C@H](Cc1c[nH]c2ccccc12)NC(=O)[C@@H](NC(=O)[C@@H](NC(=O)[C@@H]1CCCN1C(=O)[C@H](CCCNC(=N)N)N(C)C(=O)[C@@H](N)CCCNC(=N)N)[C@@H](C)O)[C@@H](C)O)C(=O)N[C@@H](C(=O)N1CCC[C@@H]1C(=O)N[C@H](CCCNC(=N)N)C(=O)N[C@H](CCCNC(=N)N)C(=O)O)[C@H](C)O)
not cleaved [2]: no degradation products within 120 minutes; 100% at 120 min

Molecule: RRPTTWHKP-G-RRPTTWHKP (RRPTTWHKPGRRPTTWHKP)
fragment found [2]: TTWHKP-G-RRPTTWHKP, 60 min; also recorded: RPTTWHKP-G-RRPTTWHKP, 20 min

cleaved bond [2]: arginine-arginine, 5 min
Molecule: RRPTTWHKP
fragment found [2]: RPTTWHKP and RRPTTWH and RPTTWH and TTWHKP and TTWH and TWH, 30 min and WH, 60 min

fragment found [2]: [FAM]-RRPTTWH, 10 min
Molecule: [FAM]-RRPTTWHKP (5FAM-RRPTTWHKP-OH; C-terminus assumed; SMILES C[C@@H](O)[C@H](NC(=O)[C@@H](NC(=O)[C@@H]1CCCN1C(=O)[C@H](CCCNC(=N)N)NC(=O)[C@H](CCCNC(=N)N)NC(=O)c1ccc2c(c1)C(=O)OC21c2ccc(O)cc2Oc2cc(O)ccc21)[C@@H](C)O)C(=O)N[C@@H](Cc1c[nH]c2ccccc12)C(=O)N[C@@H](Cc1c[nH]cn1)C(=O)N[C@@H](CCCCN)C(=O)N1CCC[C@H]1C(=O)O)

not cleaved [2]: 100% after 120 minutes
Molecule: R-mR-PTTWHKP-G-RRPTTWHKP (H-R[NMeR]PTTWHKPGRRPTTWHKP-OH; N-terminus and C-terminus assumed; SMILES C[C@@H](O)[C@H](NC(=O)[C@@H](NC(=O)[C@@H]1CCCN1C(=O)[C@H](CCCNC(=N)N)NC(=O)[C@H](CCCNC(=N)N)NC(=O)CNC(=O)[C@@H]1CCCN1C(=O)[C@H](CCCCN)NC(=O)[C@H](Cc1c[nH]cn1)NC(=O)[C@H](Cc1c[nH]c2ccccc12)NC(=O)[C@@H](NC(=O)[C@@H](NC(=O)[C@@H]1CCCN1C(=O)[C@H](CCCNC(=N)N)N(C)C(=O)[C@@H](N)CCCNC(=N)N)[C@@H](C)O)[C@@H](C)O)[C@@H](C)O)C(=O)N[C@@H](Cc1c[nH]c2ccccc12)C(=O)N[C@@H](Cc1c[nH]cn1)C(=O)N[C@@H](CCCCN)C(=O)N1CCC[C@H]1C(=O)O)

Molecule: C[C@@H](O)[C@H](NC(=O)[C@@H](NC(=O)[C@@H]1CCCN1C(=O)c1ccc2c(c1)C(=O)OC21c2ccc(O)cc2Oc2cc(O)ccc21)[C@@H](C)O)C(=O)N[C@@H](Cc1c[nH]c2ccccc12)C(=O)N[C@@H](Cc1c[nH]cn1)C(=O)O [FAM-trunc-ver5-PCPP11, [FAM]-PTTWH] (5FAM-PTTWH-OH; C-terminus assumed)
fluorescence detected (absorbed fluorescence) [1]: almost no fluorescence was observed

Molecule: C[C@@H](O)[C@H](NC(=O)[C@@H](NC(=O)[C@@H]1CCCN1C(=O)[C@H](CCCNC(=N)N)NC(=O)[C@H](CCCNC(=N)N)NC(=O)c1ccc2c(c1)C(=O)OC21c2ccc(O)cc2Oc2cc(O)ccc21)[C@@H](C)O)C(=O)N[C@@H](Cc1c[nH]c2ccccc12)C(=O)N[C@@H](Cc1c[nH]cn1)C(=O)O [FAM-trunc-ver3-PCPP11, [FAM]-RRPTTWH] (5FAM-RRPTTWH-OH; C-terminus assumed)
order of the strength of fluorescence in the pancreatic cancer cells [1]: full-length≥trunc-ver3>trunc-ver1>>trunc-ver2

remaining at 2 h [3]: 29%
Molecule: C[C@@H](O)[C@H](NC(=O)[C@@H](NC(=O)[C@@H]1CCCN1C(=O)[C@H](CCCNC(=N)N)NC(=O)[C@H](CCCNC(=N)N)NC(=O)c1ccc2c(c1)C(=O)OC21c2ccc(O)cc2Oc2cc(O)ccc21)[C@@H](C)O)C(=O)N[C@@H](Cc1c[nH]c2ccccc12)C(=O)N[C@@H](Cc1c[nH]cn1)C(=O)N[C@@H](CCCCN)C(=O)N1CCC[C@H]1C(=O)O [No. 13, reference compound] (5FAM-RRPTTWHKP-OH; C-terminus assumed)
order of the strength of fluorescence in the pancreatic cancer cells [1]: full-length≥trunc-ver3>trunc-ver1>>trunc-ver2

Molecule: RRPTTWHKP-G-RRPTTWHKP-G-RRPTTWHKP (RRPTTWHKPGRRPTTWHKPGRRPTTWHKP)
not cleaved [2]: no degradation products within 120 minutes; 100% at 120 min

Molecule: C[C@@H](O)[C@H](NC(=O)[C@@H](NC(=O)[C@@H]1CCCN1C(=O)[C@H](CCCNC(=N)N)NC(=O)c1ccc2c(c1)C(=O)OC21c2ccc(O)cc2Oc2cc(O)ccc21)[C@@H](C)O)C(=O)N[C@@H](Cc1c[nH]c2ccccc12)C(=O)O [FAM-trunc-ver4-PCPP11, [FAM]-RPTTW] (5FAM-RPTTW-OH; C-terminus assumed)
fluorescence detected (absorbed fluorescence) [1]: almost no fluorescence was observed
